Data reported in US20240174634A1, “Aldehyde Dehydrogenase Inhibitors and Their Therapeutic Use” (priority 2020, published 2024).

biological target: T1, ALDH1A3 (Homo sapiens, UniProt P47895); assay: ALDH1A3 cellular assay (ALDEFLUOR) in WM266.4 melanoma cells; assay type: cell-based; settings: WM266.4 cells; 60 min incubation; percentage of ALDH-positive cells
T1 sequence (P47895 1-512): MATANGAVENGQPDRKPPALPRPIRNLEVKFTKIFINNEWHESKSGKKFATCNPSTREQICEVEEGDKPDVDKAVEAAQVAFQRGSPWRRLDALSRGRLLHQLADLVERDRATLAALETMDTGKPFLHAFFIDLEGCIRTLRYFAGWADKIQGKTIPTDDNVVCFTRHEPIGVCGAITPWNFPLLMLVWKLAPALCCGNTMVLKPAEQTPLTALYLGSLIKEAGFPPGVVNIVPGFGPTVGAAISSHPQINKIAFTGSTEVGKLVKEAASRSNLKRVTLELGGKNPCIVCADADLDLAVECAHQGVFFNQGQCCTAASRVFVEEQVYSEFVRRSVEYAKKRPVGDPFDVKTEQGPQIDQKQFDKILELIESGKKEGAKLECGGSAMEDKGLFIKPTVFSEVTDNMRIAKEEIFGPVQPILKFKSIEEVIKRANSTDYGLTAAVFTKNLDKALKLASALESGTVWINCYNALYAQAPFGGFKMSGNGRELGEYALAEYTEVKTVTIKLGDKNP
Text: Materials: WM266.4 cells were procured from ATCC. (WM266-4 is a metastatic human melanoma cell line.) The ALDEFLUOR™ Assay kit (cat. no. 01700) and Aldefluor buffer (cat. no. 01702) were procured from StemCell Technologies. Dulbecco's Modified Eagle Medium (DMEM), FluoroBrite DMEM, Glutamax and Hoechst 33342 were purchased from ThermoFisher. Verapamil was obtained from Fluorochem. FBS was obtained from Sigma. Echo Qualified 384-well low-dead-volume microplate and Echo Qualified 384-well polypropylene microplate were purchased from Labcyte, and the Microclear black sterile polystyrene microplate from Greiner Bio-One.
Method: Intracellular inhibition of ALDH1A3 was assessed using the ALDEFLUOR™ Assay kit. The activated ALDEFLUOR™ reagent, BODIPY-aminoacetaldehyde (BAAA), is a fluorescent non-toxic substrate for ALDH enzymes, which freely diffuses into intact and viable cells. In the presence of ALDH enzyme activity, BAAA is converted into BODIPY-aminoacetate (BAA), which is retained inside the cells. The amount of fluorescent reaction product is proportional to the ALDH activity in the cells and is measured using an imaging cytometer. Active efflux of the reaction product is inhibited by an efflux inhibitor (Verapamil) in the ALDEFLUOR™ Assay Buffer.
A frozen vial of cells was recovered into a T225 flask containing DMEM, high glucose, 10% FBS, 1% glutamax, 1% HEPES. The following day, media was changed and cells were ready for assay from 72 hours after recovery. Cells were transferred into FluoroBrite DMEM (plus 10% FBS, 1% glutamax and 1% HEPES) and diluted to 2.5×10^5 cells/mL. 30 μL of cells were added to each well to give 7500 cells/well and then incubated overnight at 37° C., 5% CO2. After overnight incubation, the media was aspirated and replaced by 20 μL substrate/Hoechst buffer solution. Each plate requires 9 mL of solution comprising, 9 mL ALDEFLUOR assay buffer, 18 μL BAAA substrate (final concentration 500 nM), 4.5 μL Hoechst 33342 (final concentration 5 μg/mL) and 4.5 μL Verapamil (final concentration 50 μM). Compounds were prepared for dosing using the Echo acoustic dispenser by aliquoting into a source plate and dosed directly onto the cell assay plate to give a 10 point dose response per compound ranging from 10 μM to 0.0005 μM final concentration in 3-fold dilution steps. Plates were then incubated for 60 minutes at 37° C., 5% CO2. The buffer was then aspirated and cells washed twice in ice-cold PBS. Plates were kept on ice and 30 μL of cold Aldefluor buffer with 50 μM verapamil dispensed per well. The plates were then imaged using the CellInsight fluorescent microscope. Hoechst fluorescence in the 405 nm channel indicated the nuclear area and this was used to define nuclei and then the surrounding cellular area. Fluorescence in the 488 nm channel of the defined cellular area indicates ALDH1A3 activity. The percentage of cells positive for ALDH activity was plotted versus compound concentration to generate EC50 values using curve fitting parameters defined in Dotmatics software.

SMILES	IC50 [µM]
O=C1CCc2cc(OCCN3CC(O)CC3c3cccc(F)c3)ccc2N1 (mixture of isomers) [ALDHI-2035, 6-[2-[2-(3-fluorophenyl)-4-hydroxy-pyrrolidin-1-yl]ethoxy]-3,4-dihydro-1H-quinolin-2-one]	< 0.1
CC1CN(CCOc2ccc3c(c2)CCC(=O)N3)C(c2ccccc2)CO1 (mixture of isomers) [ALDHI-2042, 6-[2-(2-methyl-5-phenyl-morpholin-4-yl)ethoxy]-3,4-dihydro-1H-quinolin-2-one]	0.1 to 1
O=C1CCc2cc(NC(=O)c3sc(N4CCOCC4)nc3-c3cccc(F)c3)ccc2N1 [ALDHI-1001, 4-(3-fluorophenyl)-2-morpholino-N-(2-oxo-3,4-dihydro-1H-quinolin-6-yl)thiazole-5-carboxamide]	< 0.1
CN(C)c1nc(-c2cccc(F)c2)c(C(=O)Nc2ccc3c(c2)CCC(=O)N3)s1 [ALDHI-1002, 2-(dimethylamino)-4-(3-fluorophenyl)-N-(2-oxo-3,4-dihydro-1H-quinolin-6-yl)thiazole-5-carboxamide]	< 0.1
O=C1CCc2cc(NC(=O)c3scnc3-c3cccc(F)c3)ccc2N1 [ALDHI-1003, 4-(3-fluorophenyl)-N-(2-oxo-3,4-dihydro-1H-quinolin-6-yl)thiazole-5-carboxamide]	< 0.1
O=C1CCc2cc(NC(=O)c3sc(N4CC(O)C4)nc3-c3cccc(F)c3)ccc2N1 [ALDHI-1004, 4-(3-fluorophenyl)-2-(3-hydroxyazetidin-1-yl)-N-(2-oxo-3,4-dihydro-1H-quinolin-6-yl)thiazole-5-carboxamide]	< 0.1
O=C1CCc2cc(NC(=O)c3sc(N4CCNCC4)nc3-c3cccc(F)c3)ccc2N1 [ALDHI-1005, 4-(3-fluorophenyl)-N-(2-oxo-3,4-dihydro-1H-quinolin-6-yl)-2-piperazin-1-yl-thiazole-5-carboxamide]	< 0.1
Cc1noc(-c2ccccc2C(=O)Nc2ccc3c(c2)CCC(=O)N3)n1 [ALDHI-1008, 2-(3-methyl-1,2,4-oxadiazol-5-yl)-N-(2-oxo-1,2,3,4-tetrahydroquinolin-6-yl)benzamide]	0.1 to 1
O=C1CCc2cc(NC(=O)c3ncsc3-c3ccsc3)ccc2N1 [ALDHI-1011, N-(2-oxo-3,4-dihydro-1H-quinolin-6-yl)-5-(3-thienyl)thiazole-4-carboxamide]	1 to 10
O=C1CCc2cc(NC(=O)c3ncsc3-c3cccc(F)c3)ccc2N1 [ALDHI-1014, 5-(3-fluorophenyl)-N-(2-oxo-3,4-dihydro-1H-quinolin-6-yl)thiazole-4-carboxamide]	1 to 10
O=C1COc2cc(NC(=O)c3scnc3-c3cccc(F)c3)ccc2N1 [ALDHI-1016, 4-(3-fluorophenyl)-N-(3-oxo-4H-1,4-benzoxazin-7-yl)thiazole-5-carboxamide]	< 0.1
O=C1CCc2cc(NC(=O)c3scnc3-c3ccc(F)cc3)ccc2N1 [ALDHI-1017, 4-(4-fluorophenyl)-N-(2-oxo-1,2,3,4-tetrahydroquinolin-6-yl)thiazole-5-carboxamide]	0.1 to 1
O=C1CCc2cc(NC(=O)c3cncnc3-c3cccc(F)c3)ccc2N1 [ALDHI-1018, 4-(3-fluorophenyl)-N-(2-oxo-3,4-dihydro-1H-quinolin-6-yl)pyrimidine-5-carboxamide]	0.1 to 1
O=C1CCc2cc(NC(=O)c3ocnc3-c3cccc(F)c3)ccc2N1 [ALDHI-1019, 4-(3-fluorophenyl)-N-(2-oxo-3,4-dihydro-1H-quinolin-6-yl)oxazole-5-carboxamide]	1 to 10
O=C1CCc2cc(NC(=O)c3scnc3-c3ccccc3F)ccc2N1 [ALDHI-1021, 4-(2-fluorophenyl)-N-(2-oxo-3,4-dihydro-1H-quinolin-6-yl)thiazole-5-carboxamide]	< 0.1
O=C1CCc2cc(NC(=O)c3scnc3-c3cccs3)ccc2N1 [ALDHI-1023, N-(2-oxo-3,4-dihydro-1H-quinolin-6-yl)-4-(2-thienyl)thiazole-5-carboxamide]	< 0.1

SMILES	IC50 [µM]
O=C1CCc2cc(OCCN3CCCC3c3cccc(F)c3)ccc2N1 (centres unmarked) [ALDHI-2001, 6-[2-[2-(3-fluorophenyl)pyrrolidin-1-yl]ethoxy]-3,4-dihydro-1H-quinolin-2-one]	< 0.1
O=C1CCc2cc(OCCN3CCCC3c3ccccc3F)ccc2N1 (centres unmarked) [ALDHI-2002, 6-[2-[2-(2-fluorophenyl)pyrrolidin-1-yl]ethoxy]-3,4-dihydro-1H-quinolin-2-one]	1 to 10
O=C1CCc2cc(OCCN3CCCC3c3ccc(F)cc3)ccc2N1 (centres unmarked) [ALDHI-2003, 6-[2-[2-(4-fluorophenyl)pyrrolidin-1-yl]ethoxy]-3,4-dihydro-1H-quinolin-2-one]	1 to 10
O=C1CCc2cc(OCCN3CCCC3c3ccncc3)ccc2N1 (centres unmarked) [ALDHI-2004, 6-[2-[2-(4-pyridyl)pyrrolidin-1-yl]ethoxy]-3,4-dihydro-1H-quinolin-2-one]	1 to 10
O=C1CCc2cc(OCCN3CCCC3c3cccnc3)ccc2N1 (centres unmarked) [ALDHI-2005, 6-[2-[2-(3-pyridyl)pyrrolidin-1-yl]ethoxy]-3,4-dihydro-1H-quinolin-2-one]	0.1 to 1
O=C1CCc2cc(OCCN3CCCC3c3ccccn3)ccc2N1 (centres unmarked) [ALDHI-2006, 6-[2-[2-(2-pyridyl)pyrrolidin-1-yl]ethoxy]-3,4-dihydro-1H-quinolin-2-one]	1 to 10
O=C1CCc2cc(OCCN3CCC[C@@H]3c3cccc(F)c3)ccc2N1 [ALDHI-2007, 6-[2-[(2R)-2-(3-fluorophenyl)pyrrolidin-1-yl]ethoxy]-3,4-dihydro-1H-quinolin-2-one]	< 0.1
O=C1CSc2cc(OCCN3CCCC3c3cccc(F)c3)ccc2N1 (centres unmarked) [ALDHI-2008, 7-[2-[2-(3-fluorophenyl)pyrrolidin-1-yl]ethoxy]-4H-1,4-benzothiazin-3-one]	< 0.1
O=C1COc2cc(OCCN3CCCC3c3cccc(F)c3)ccc2N1 (centres unmarked) [ALDHI-2009, 7-[2-[2-(3-fluorophenyl)pyrrolidin-1-yl]ethoxy]-4H-1,4-benzoxazin-3-one]	0.1 to 1
Cc1ccc(C2CCCN2CCOc2ccc3c(c2)CCC(=O)N3)cc1 (centres unmarked) [ALDHI-2010, 6-[2-[2-(p-tolyl)pyrrolidin-1-yl]ethoxy]-3,4-dihydro-1H-quinolin-2-one]	0.1 to 1
Cc1cccc(C2CCCN2CCOc2ccc3c(c2)CCC(=O)N3)c1 (centres unmarked) [ALDHI-2011, 6-[2-[2-(m-tolyl)pyrrolidin-1-yl]ethoxy]-3,4-dihydro-1H-quinolin-2-one]	1 to 10
Cc1ccccc1C1CCCN1CCOc1ccc2c(c1)CCC(=O)N2 (centres unmarked) [ALDHI-2012, 6-[2-[2-(o-tolyl)pyrrolidin-1-yl]ethoxy]-3,4-dihydro-1H-quinolin-2-one]	1 to 10
O=C1CCc2cc(OCCN3CCCC3c3cccs3)ccc2N1 (centres unmarked) [ALDHI-2013, 6-[2-[2-(2-thienyl)pyrrolidin-1-yl]ethoxy]-3,4-dihydro-1H-quinolin-2-one]	0.1 to 1
O=C1CCc2cc(OCCN3CCCC3c3ccsc3)ccc2N1 (centres unmarked) [ALDHI-2014, 6-[2-[2-(3-thienyl)pyrrolidin-1-yl]ethoxy]-3,4-dihydro-1H-quinolin-2-one]	0.1 to 1
CCn1cc(C2CCCN2CCOc2ccc3c(c2)CCC(=O)N3)cn1 (centres unmarked) [ALDHI-2016, 6-[2-[2-(1-ethylpyrazol-4-yl)pyrrolidin-1-yl]ethoxy]-3,4-dihydro-1H-quinolin-2-one]	1 to 10
O=C1CCc2cc(OCCN3CCC[C@H]3c3cccc(F)c3)ccc2N1 [ALDHI-2018, 6-[2-[(2S)-2-(3-fluorophenyl)pyrrolidin-1-yl]ethoxy]-3,4-dihydro-1H-quinolin-2-one]	< 0.1
